Laboratory results from ChEMBL document CHEMBL1909046, “DrugMatrix in vitro pharmacology data”.

Tests used:
[1] = DRUGMATRIX: Phosphodiesterase PDE3 enzyme inhibition (substrate: [3H]cAMP + cAMP); assay type: tissue-based, Homo sapiens; conditions: platelet; Not Active = under 50% inhibition at 10 µM
[2] = target: Tyrosine-protein kinase Fyn (Homo sapiens, UniProt P06241); experiment: biochemical; assay type: cell-based, Insect cells; conditions: insect cells;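 also: enzymatic inhibition of Fyn kinase activity measured with Poly(Glu:Tyr) as the phosphorylation substrate; in other assays of this panel Not Active means under 50% inhibition at 10 µM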
[3] = target: Receptor tyrosine-protein kinase erbB-2 (Homo sapiens, UniProt P04626); experiment: biochemical; assay type: cell-based, Insect cells; conditions: insect cells;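 also: inhibition of HER2 kinase enzyme activity, measured with Poly(Glu:Tyr) as the phosphorylation substrate; in other assays of this panel Not Active means under 50% inhibition at 10 µM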
Adenosine receptor A3 = target: T1, Adenosine receptor A3 (Homo sapiens, UniProt P0DMS8); assay type: cell membranes, CHO-K1, Membrane; conditions: cho-k1;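 also: radioligand binding assay with AB-MECA serving as the labeled ligand; in other assays of this panel Not Active means under 50% inhibition at 10 µM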
T1 sequence (P0DMS8 whole entry): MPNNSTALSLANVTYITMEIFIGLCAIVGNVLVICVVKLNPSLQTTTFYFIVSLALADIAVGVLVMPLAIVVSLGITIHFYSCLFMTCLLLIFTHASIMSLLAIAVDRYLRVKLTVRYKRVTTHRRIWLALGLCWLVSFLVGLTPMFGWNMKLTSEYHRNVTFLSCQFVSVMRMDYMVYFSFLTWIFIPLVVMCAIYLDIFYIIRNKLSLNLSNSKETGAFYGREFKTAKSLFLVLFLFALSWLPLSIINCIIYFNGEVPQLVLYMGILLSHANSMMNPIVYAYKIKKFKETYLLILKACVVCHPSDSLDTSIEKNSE

[4] = target: T2, C-C chemokine receptor type 4 (Homo sapiens, UniProt P51679); assay type: cell membranes, Membrane; conditions: chem-1; also: in other assays of this panel Not Active means under 50% inhibition at 10 µM
T2 sequence (P51679 whole entry): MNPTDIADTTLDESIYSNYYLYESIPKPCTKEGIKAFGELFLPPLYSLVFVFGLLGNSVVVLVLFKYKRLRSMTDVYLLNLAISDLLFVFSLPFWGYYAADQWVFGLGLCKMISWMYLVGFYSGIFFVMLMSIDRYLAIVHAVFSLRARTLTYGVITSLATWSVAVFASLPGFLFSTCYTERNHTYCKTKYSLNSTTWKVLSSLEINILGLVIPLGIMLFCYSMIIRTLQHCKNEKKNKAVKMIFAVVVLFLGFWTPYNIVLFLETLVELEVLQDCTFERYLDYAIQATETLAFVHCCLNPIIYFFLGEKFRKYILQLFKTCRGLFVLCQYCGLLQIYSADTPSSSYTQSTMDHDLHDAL

Vasopressin V1a receptor = Vasopressin V1a receptor (Homo sapiens, UniProt P37288); assay type: cell membranes, Membrane; conditions: hek293; also: in other assays of this panel Not Active means under 50% inhibition at 10 µM
Chain of Vasopressin V1a receptor (P37288 whole entry): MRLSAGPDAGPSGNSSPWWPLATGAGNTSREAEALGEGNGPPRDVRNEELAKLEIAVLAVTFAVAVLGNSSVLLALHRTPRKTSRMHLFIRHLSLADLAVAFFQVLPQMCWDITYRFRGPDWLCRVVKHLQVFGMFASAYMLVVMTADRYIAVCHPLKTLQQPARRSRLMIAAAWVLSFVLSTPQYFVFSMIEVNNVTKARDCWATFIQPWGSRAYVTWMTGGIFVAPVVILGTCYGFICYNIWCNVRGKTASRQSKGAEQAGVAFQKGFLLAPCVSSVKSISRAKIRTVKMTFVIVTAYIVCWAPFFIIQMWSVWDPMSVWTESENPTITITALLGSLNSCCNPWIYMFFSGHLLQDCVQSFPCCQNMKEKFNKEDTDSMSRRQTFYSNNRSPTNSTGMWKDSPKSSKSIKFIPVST

Chain of Receptor tyrosine-protein kinase erbB-2 (P04626 whole entry): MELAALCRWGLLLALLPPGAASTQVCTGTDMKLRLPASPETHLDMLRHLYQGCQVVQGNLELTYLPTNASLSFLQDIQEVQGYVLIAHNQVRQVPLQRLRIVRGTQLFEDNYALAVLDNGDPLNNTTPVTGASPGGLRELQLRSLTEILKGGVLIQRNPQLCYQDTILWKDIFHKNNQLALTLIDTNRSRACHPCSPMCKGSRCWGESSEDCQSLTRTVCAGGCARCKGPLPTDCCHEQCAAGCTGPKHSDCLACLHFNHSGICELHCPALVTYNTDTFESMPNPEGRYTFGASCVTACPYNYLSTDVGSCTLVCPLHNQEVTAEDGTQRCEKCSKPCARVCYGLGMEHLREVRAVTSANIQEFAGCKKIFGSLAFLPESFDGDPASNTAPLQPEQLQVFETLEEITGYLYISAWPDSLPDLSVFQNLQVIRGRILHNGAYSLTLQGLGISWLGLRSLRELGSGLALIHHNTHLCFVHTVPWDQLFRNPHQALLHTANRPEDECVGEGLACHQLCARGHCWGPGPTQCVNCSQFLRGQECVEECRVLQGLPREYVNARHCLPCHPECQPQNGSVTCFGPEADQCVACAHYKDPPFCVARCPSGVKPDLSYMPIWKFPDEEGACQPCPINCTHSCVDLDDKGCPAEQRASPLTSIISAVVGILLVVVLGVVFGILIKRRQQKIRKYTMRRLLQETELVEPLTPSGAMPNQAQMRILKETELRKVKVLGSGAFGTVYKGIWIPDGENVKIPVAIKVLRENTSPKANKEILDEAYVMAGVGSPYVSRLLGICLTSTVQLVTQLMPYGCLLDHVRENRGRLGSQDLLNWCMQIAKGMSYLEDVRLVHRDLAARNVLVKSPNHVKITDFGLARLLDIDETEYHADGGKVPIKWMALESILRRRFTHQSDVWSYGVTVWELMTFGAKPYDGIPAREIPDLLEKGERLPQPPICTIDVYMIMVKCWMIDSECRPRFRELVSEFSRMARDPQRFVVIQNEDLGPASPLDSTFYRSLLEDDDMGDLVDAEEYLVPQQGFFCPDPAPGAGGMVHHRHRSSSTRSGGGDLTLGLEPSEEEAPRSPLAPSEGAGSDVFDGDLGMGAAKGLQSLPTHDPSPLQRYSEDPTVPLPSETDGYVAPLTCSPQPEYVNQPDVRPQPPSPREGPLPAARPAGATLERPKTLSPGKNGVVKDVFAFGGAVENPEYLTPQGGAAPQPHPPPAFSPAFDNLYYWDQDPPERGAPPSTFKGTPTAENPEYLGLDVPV
Chain of Tyrosine-protein kinase Fyn (P06241 whole entry): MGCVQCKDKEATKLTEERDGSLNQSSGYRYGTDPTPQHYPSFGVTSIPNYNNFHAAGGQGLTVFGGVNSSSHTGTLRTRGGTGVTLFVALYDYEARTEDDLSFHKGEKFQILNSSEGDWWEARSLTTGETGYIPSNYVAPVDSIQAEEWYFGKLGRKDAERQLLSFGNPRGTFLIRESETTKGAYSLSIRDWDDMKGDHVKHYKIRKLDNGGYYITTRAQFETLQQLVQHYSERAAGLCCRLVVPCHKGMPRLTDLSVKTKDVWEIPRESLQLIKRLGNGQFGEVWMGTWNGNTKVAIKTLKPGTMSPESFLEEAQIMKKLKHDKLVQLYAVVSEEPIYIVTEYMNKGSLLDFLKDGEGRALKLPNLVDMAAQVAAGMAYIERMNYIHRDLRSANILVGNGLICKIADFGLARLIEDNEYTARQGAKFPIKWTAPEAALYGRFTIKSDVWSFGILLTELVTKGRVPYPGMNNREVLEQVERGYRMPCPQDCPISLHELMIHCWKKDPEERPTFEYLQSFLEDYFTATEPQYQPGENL

Compound | IC50 [1] | Ki [1] | IC50 [2] | IC50 [3] | IC50 (Adenosine receptor A3) | IC50 [4] | IC50 (Vasopressin V1a receptor) | IC50 ([2]; read-out: IC50) | Ki (Adenosine receptor A3) | Ki [4] | Ki (Vasopressin V1a receptor)
C[C@H]1[C@H](NC(=O)/C(=N\OC(C)(C)C(=O)O)c2csc(N)n2)C(=O)N1S(=O)(=O)O [AZTREONAM] | Not Active | Not Active | Not Active | Not Active | Not Active | Not Active | Not Active | – | – | – | –
O=C(O)CCNC(=O)c1ccc(/N=N/c2ccc(O)c(C(=O)O)c2)cc1 [BALSALAZIDE] | Not Active | Not Active | Not Active | Not Active | Not Active | Not Active | Not Active | – | – | – | –
COc1cc(OC)c(C(=O)CCCN2CCCC2)c(OC)c1 [BUFLOMEDIL] | Not Active | Not Active | Not Active | Not Active | Not Active | Not Active | Not Active | – | – | – | –
Cn1c(=O)c2c(ncn2C)n(C)c1=O [CAFFEINE] | Not Active | Not Active | Not Active | Not Active | Not Active | Not Active | Not Active | – | – | – | –
ClC(Cl)(Cl)Cl [CARBON TETRACHLORIDE] | Not Active | Not Active | Not Active | Not Active | Not Active | Not Active | Not Active | – | – | – | –
CO/N=C(\C(=O)N[C@@H]1C(=O)N2C(C(=O)O)=C(COC(C)=O)CS[C@H]12)c1csc(N)n1 [CEFOTAXIME] | Not Active | Not Active | Not Active | Not Active | Not Active | Not Active | Not Active | – | – | – | –
CNC1=Nc2ccc(Cl)cc2C(c2ccccc2)=[N+]([O-])C1 [CHLORDIAZEPOXIDE] | Not Active | Not Active | Not Active | Not Active | Not Active | Not Active | Not Active | – | – | – | –
Cc1cc(O)cc(C)c1Cl [CHLOROXYLENOL] | Not Active | Not Active | Not Active | Not Active | Not Active | Not Active | Not Active | – | – | – | –
CCCNC(=O)NS(=O)(=O)c1ccc(Cl)cc1 [CHLORPROPAMIDE] | Not Active | Not Active | Not Active | Not Active | Not Active | Not Active | Not Active | – | – | – | –
NS(=O)(=O)c1cc(C2(O)NC(=O)c3ccccc32)ccc1Cl (centres undefined) [CHLORTHALIDONE] | Not Active | Not Active | Not Active | Not Active | Not Active | Not Active | Not Active | – | – | – | –
O=C(O)CC(O)(CC(=O)O)C(=O)O [CITRIC ACID] | Not Active | Not Active | Not Active | Not Active | Not Active | Not Active | Not Active | – | – | – | –
CC(C)NCC(O)c1ccccc1Cl (centres undefined) [CLORPRENALINE] | Not Active | Not Active | Not Active | Not Active | Not Active | Not Active | Not Active | – | – | – | –
CN1CCN(C(c2ccccc2)c2ccccc2)CC1 [CYCLIZINE] | Not Active | Not Active | Not Active | Not Active | Not Active | Not Active | Not Active | – | – | – | –
CN1C[C@@H]2C[C@H]1CN2c1cc2c(cc1F)c(=O)c(C(=O)O)cn2C1CC1 [DANOFLOXACIN] | Not Active | Not Active | Not Active | Not Active | Not Active | Not Active | Not Active | – | – | – | –
COc1cccc2c1C(=O)c1c(O)c3c(c(O)c1C2=O)C[C@@](O)(C(C)=O)C[C@@H]3O[C@H]1C[C@H](N)[C@H](O)[C@H](C)O1 [DAUNORUBICIN] | Not Active | Not Active | Not Active | Not Active | Not Active | Not Active | Not Active | – | – | – | –
COLISTIN | Not Active | Not Active | – | – | Not Active | Not Active | Not Active | 0.959 µM | Not Active | Not Active | Not Active
